# Reference: ChEMBL document CHEMBL1157865, “Synthesis and evaluation of SQ109 analogues as potential anti-tuberculosis candidates” (2010)
# System: Mycobacterium tuberculosis
# Assay: Antimycobacterial activity against Mycobacterium tuberculosis H37Rv ATCC 25618 by BACTEC 460 radiometric method
# Format: functional
row,SMILES,MIC
1,CC(C)CCCC(C)CCNCCNC1C2CC3CC(C2)CC1C3 (stereo unspecified),1 µM
2,CC(C)CCCC(C)CCNCCNC12CC3CC(CC(C3)C1)C2 (stereo unspecified),0.5 µM
3,CC(C)CCCC(C)CCCC(C)CCNCCNC1C2CC3CC(C2)CC1C3 (stereo unspecified),0.5 µM
4,CC(C)=CCC/C(C)=C/CNCCNC1C2CC3CC(C2)CC1C3 (stereo unspecified) [SQ109],0.5 µM
5,CC(C)=CCC/C(C)=C/CC/C(C)=C/CNCCNC1C2CC3CC(C2)CC1C3 (stereo unspecified),0.25 µM
6,CC(C)=CCC/C(C)=C\CNCCNC12CC3CC(CC(C3)C1)C2,1 µM
